Measured values: patent US9174977B2, “2-azabicyclo[4.1.0]heptane derivatives as orexin receptor antagonists for the treatment of certain disorders” (Rottapharm Biotech S.r.l., priority 2012, dated 2015)

Tests used:
human OX1 receptors = target: T1, human OX1 receptors (Homo sapiens, UniProt O43613); experiment: antagonistic activity against human OX1 receptor, calcium fluorimetry (Fluo-4NW) in transfected CHO cells; format: cell-based; conditions: CHO cells transfected with human recombinant OX1, activated with orexin-A 3 nM; pKb = co-logarithm of apparent dissociation constant (modified Cheng Prusoff)
T1 construct: expressed in transfected cells; host or cells: CHO cells
T1 sequence (O43613 1-425): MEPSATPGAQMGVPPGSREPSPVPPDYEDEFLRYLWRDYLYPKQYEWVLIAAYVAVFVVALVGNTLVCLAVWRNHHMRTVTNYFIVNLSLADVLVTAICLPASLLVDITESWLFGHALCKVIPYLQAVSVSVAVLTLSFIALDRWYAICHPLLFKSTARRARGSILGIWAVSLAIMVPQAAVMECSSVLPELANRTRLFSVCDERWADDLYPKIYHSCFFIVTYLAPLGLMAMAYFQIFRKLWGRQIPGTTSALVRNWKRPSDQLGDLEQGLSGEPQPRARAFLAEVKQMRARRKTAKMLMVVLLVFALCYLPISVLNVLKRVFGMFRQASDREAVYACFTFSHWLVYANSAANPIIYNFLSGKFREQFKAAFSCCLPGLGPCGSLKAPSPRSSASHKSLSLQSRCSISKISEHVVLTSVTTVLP
Protocol: (§1) In a typical experiment, the antagonistic activity against human OX1 and OX2 receptors is determined by using CHO e HEK-293 cells transfected with human recombinant OX1 and OX2 receptors respectively, seeded at density of 2 and 3×10^4 cells/well respectively in a 96 fluorimetry well plate. Thus the plate was loaded with the calcium dye (Fluo-4NW/probenecid in HBSS, Hepes 20 mM, pH 7,4; Invitrogen) at 37° C. for 60 min. Afterward the temperature was equilibrated at 22° C. for 15 min and the [Ca2+]i measured directly on the plate by using a fluorescent plate reader (CellLux Perkin Elmer).
(§2) Invention compounds were dissolved in DMSO, diluted in HBSS (DMSO, 0.3% final) and added to the wells. After 5 min CHO cells were activated with orexin-A, 3 nM while HEK-293 cells were activated with orexin-B, 10 nM.
(§3) The compounds, dissolved in DMSO and diluted in the medium (DMSO, 0.3% final), have been analysed in the 1 nM-1 μM concentration range (every concentration in duplicate). The antagonistic activity has been expressed as pKb (co-logarithm of the apparent dissociation constant calculated by using the modified Cheng Prusoff equation).
(§4) The results are expressed as percent of control specific […] response ((measured specific response/control specific agonist response)×100) obtained in the presence of the test compounds.
(§5) The IC50 values (concentration causing a half-maximal inhibition of the control specific agonist response) were determinated by non-linear regression analysis of the concentration curves generated with mean replicate values using hill equation curve fitting. The IC50 values are obtained by the arithmetical mean of at least two experiments.

human OX2 receptors = target: T2, human OX2 receptors (Homo sapiens, UniProt O43614); experiment: antagonistic activity against human OX2 receptor, calcium fluorimetry (Fluo-4NW) in transfected HEK-293 cells; format: cell-based; conditions: HEK-293 cells transfected with human recombinant OX2, activated with orexin-B 10 nM; pKb = co-logarithm of apparent dissociation constant (modified Cheng Prusoff)
T2 construct: expressed in transfected cells; host or cells: HEK-293 cells
T2 sequence (O43614 1-444): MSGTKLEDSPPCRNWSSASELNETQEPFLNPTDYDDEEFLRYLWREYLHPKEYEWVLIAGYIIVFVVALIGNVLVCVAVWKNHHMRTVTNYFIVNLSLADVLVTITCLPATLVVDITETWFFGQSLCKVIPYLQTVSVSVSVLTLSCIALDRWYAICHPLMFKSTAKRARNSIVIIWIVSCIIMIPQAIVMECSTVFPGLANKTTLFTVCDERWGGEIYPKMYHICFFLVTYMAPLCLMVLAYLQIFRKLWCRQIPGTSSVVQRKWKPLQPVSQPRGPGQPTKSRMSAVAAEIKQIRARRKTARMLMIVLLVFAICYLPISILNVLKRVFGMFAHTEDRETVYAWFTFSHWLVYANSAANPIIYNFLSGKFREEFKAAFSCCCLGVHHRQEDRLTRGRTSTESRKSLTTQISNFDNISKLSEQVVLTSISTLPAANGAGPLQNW
Protocol: as §1, §2, §3, §4, §5

Kb (human OX1 receptors) [nM] | Kb (human OX2 receptors) [nM] | Structure (SMILES)
1.26 | 20 | O=C(c1cc(Cl)ccc1-c1ncccn1)N1[C@H](COc2ccc(C(F)(F)F)cn2)CC[C@H]2C[C@H]21 [Compound 3d, (5-chloro-2-(pyrimidin-2-yl)phenyl)((1R,3S,6S)-3-(((5-(trifluoromethyl)pyridin-2-yl)oxy)methyl)-2-azabicyclo[4.1.0]heptan-2-yl)methanone]
6.31 | 79.4 | N#Cc1ccc(-c2ncccn2)c(C(=O)N2[C@H](CNc3ccc(C(F)(F)F)cn3)CC[C@@H]3C[C@@H]32)c1 [Compound 4c, 4-(pyrimidin-2-yl)-3-((1S,3S,6R)-3-(((5-(trifluoromethyl)pyridin-2-yl)amino)methyl)-2-azabicyclo[4.1.0]heptane-2-carbonyl)benzonitrile]
5.01 | 200 | O=C(c1cc(Cl)ccc1-c1ncccn1)N1[C@H](CNc2ccc(C(F)(F)F)cn2)CC[C@@H]2C[C@@H]21 [Compound 4b, (5-chloro-2-(pyrimidin-2-yl)phenyl)((1S,3S,6R)-3-(((5-(trifluoromethyl)pyridin-2-yl)amino)methyl)-2-azabicyclo[4.1.0]heptan-2-yl)methanone]
7.94 | 50.1 | O=C(c1cc(Cl)ccc1-c1ncccn1)N1[C@H](CNc2cc(C(F)(F)F)ccn2)CC[C@@H]2C[C@@H]21 [Compound 4d, (5-chloro-2-(pyrimidin-2-yl)phenyl)((1S,3S,6R)-3-(((4-(trifluoromethyl)pyridin-2-yl)amino)methyl)-2-azabicyclo[4.1.0]heptan-2-yl)methanone]
5.01 | 20 | N#Cc1ccc(-c2ncccn2)c(C(=O)N2[C@H](CNc3nccc(C(F)(F)F)n3)CC[C@H]3C[C@H]32)c1 [Compound 1j, 4-(pyrimidin-2-yl)-3-((1R,3S,6S)-3-(((4-(trifluoromethyl)pyrimidin-2-yl)amino)methyl)-2-azabicyclo[4.1.0]heptane-2-carbonyl)benzonitrile]
1.58 | 20 | N#Cc1ccc(-c2ncccn2)c(C(=O)N2[C@H](CNc3ccc(Cl)cn3)CC[C@H]3C[C@H]32)c1 [Compound 1i, 3-((1R,3S,6S)-3-(((5-chloropyridin-2-yl)amino)methyl)-2-azabicyclo[4.1.0]heptane-2-carbonyl)-4-(pyrimidin-2-yl)benzonitrile]
2.51 | 5.01 | Cc1ccc(-c2ncccn2)c(C(=O)N2[C@H](CNc3nccc(C(F)(F)F)n3)CC[C@H]3C[C@H]32)c1 [Compound 1k, (5-methyl-2-(pyrimidin-2-yl)phenyl)((1R,3S,6S)-3-(((4-(trifluoromethyl)pyrimidin-2-yl)amino)methyl)-2-azabicyclo[4.1.0]heptan-2-yl)methanone]
6.31 | 39.8 | Cc1ccc(-c2ncccn2)c(C(=O)N2[C@H](CNc3cc(C(F)(F)F)ccn3)CC[C@@H]3C[C@@H]32)c1 [Compound 4f, (5-methyl-2-(pyrimidin-2-yl)phenyl)((1S,3S,6R)-3-(((4-(trifluoromethyl)pyridin-2-yl)amino)methyl)-2-azabicyclo[4.1.0]heptan-2-yl)methanone]
1 | 15.8 | O=C(c1cc(Cl)ccc1-c1ncccn1)N1[C@H](COc2ccc(Cl)cn2)CC[C@H]2C[C@H]21 [Compound 3e, (5-chloro-2-(pyrimidin-2-yl)phenyl)((1R,3S,6S)-3-(((5-chloropyridin-2-yl)oxy)methyl)-2-azabicyclo[4.1.0]heptan-2-yl)methanone]
1.58 | 3.98 | O=C(c1cc(Cl)ccc1-c1ncccn1)N1[C@H](CNc2cc(C(F)(F)F)ccn2)CC[C@H]2C[C@H]21 [Compound 1a, (5-chloro-2-(pyrimidin-2-yl)phenyl)((1R,3S,6S)-3-(((4-(trifluoromethyl)pyridin-2-yl)amino)methyl)-2-azabicyclo[4.1.0]heptan-2-yl)methanone]
